Entries after “also recorded” stand apart in the source; their conditions may differ.

The subject of experiment [1] is Elav-gs-GAL4>UAS-APP; UAS-BACE1 flies. The experiment in a line: Olfaction aversion training in fly AD model. As to conditions: 1 μM mixed into food, 10 days. Type of experiment: in vivo, Drosophila melanogaster. As to the method: Olfactory aversion training. Experiments were performed broadly (Malik, B. R. & Hodge, J. J. J Vis Exp, e50107, doi:10.3791/50107 (2014)). Animals were exposed (via an air pump) in alternation to two neutral odors (3-octanol and 4-methylcyclohexanol, prepared as a 1/10 dilution in mineral oil) for 5 minutes under low red-light and a 100V 60 Hz shock was applied during exposure to one of the two odors. The odor associated with the electric shock was alternated between vials. After three training rounds per odor, animals were given one hour to recover then placed in a T-maze (Celexplorer labs) with opposing odors from either side. Flies were allowed two minutes to explore the maze after which the maze sections were sealed and the number of flies in each chamber scored.
The compounds were tested as follows: in neuroblast MC65 cell culture model with overexpressed C99 fragment of amyloid precursor protein (APP) upon tetracycline withdrawal or with external APP added; and in fruit fly (D. melanogaster) model of AD with overexpressed APP and BACE1. The compounds (1 μM) were mixed with food. Flies were trained to recognize “positive” and “negative” odors (olfaction aversion). The compounds were also treated in hAPP (J20) mice which overexpress a familial variant of APP. The compounds were injected for 14 days (1 mg/kg). Novel Object Recognition assay was used to test learning and memory.

Experiment [2] addresses T1, latent 20S core proteasome, T-L peptidase (Homo sapiens, UniProt P25787+P60900).
T1 construct: purified from erythrocytes; purchased Boston Biochem, Inc. or Enzo Life Sciences, Inc; host or cells: human erythrocytes
The experiment can be described thus: Trypsin-like (T-L) peptidase activity of the core proteasome. It counts as biochemical. As to the method: Determination of Proteasome Activity. Human housekeeping core (20S) proteasome purified from erythrocytes was purchased from Boston Biochem, Inc. (Cambridge, Mass.) or from Enzo Life Sciences, Inc. (Farmingdale, N.Y.). Multiple batches of the proteasomes were used and performed reproducibly. The stock proteasome was diluted to 0.2 mg/mL working solution in “dilution buffer” (50 mM Tris/HCl, pH 8, 20% glycerol). The following model peptide substrates, releasing fluorescent 7-amino-4-methylcoumarin (AMC) reporter group after cleavage, were used: succinyl-LeuLeuValTyr-AMC (SEQ ID NO: 14) (for the ChT-L peptidase; SucLLVY-AMC; Bachem Bioscience Inc., Philadelphia, Pa.), butoxycarbonyl-LeuArgArg-AMC (T-L; Bachem Bioscience Inc., Philadelphia, Pa.) and carbobenzoxy-LeuLeuGlu-AMC (PGPH; Enzo Life Sciences Inc., Farmingdale, N.Y.). […] After mixing, the plate was transferred to a Fluoroskan Ascent plate reader (Thermo Fisher Scientific Inc., Waltham, Mass.) for 1 h (37° C.), with fluorescence readouts once per minute. […] The reaction rates were calculated from a linear segment of kinetic curves constructed from measurements in 1-min intervals. Reaction rates were calculated using a linear fit performed with the Slope Analyser and Enzyme Kinetics applications launched within Origin Pro 2019 (OriginLab Corporation, Northampton, Mass.). […]

The target in experiment [3] is T2, purified human 26S proteasome (Homo sapiens, UniProt P25787+P60900).
T2 construct: purchased Boston Biochemicals (Boston Biochem)
The experiment can be described thus: In-gel overlay activity on non-denaturing gel, 26S proteasome. It counts as biochemical. As to conditions: 1 microM, 15 min, 100 microM Suc-LLVY-MCA. How it is done: Purified human 20S and 26S proteasomes were separated on non-denaturing polyacrylamide gel. The gel was overlayed with reaction buffer containing 100 microM fluorogenic peptide substrate Suc-LLVY-MCA (SEQ ID NO: 14) and 1% of vehicle solvent (DMSO) or the substrate and 1 microM Tat1 8,9 TOD. The gel was photographed after 15 min of incubation and then stained for the total protein content with Coomassie Brilliant Blue, and photographed. […] The protein content was the same for the control and Tat-overlayed sets. The activities of both 26S and 20S are enhanced by Tat1 8,9 TOD. The enhanced activity of 26S was not the result of Tat1 8,9 TOD—induced breaking of the 26S assembly into its components (19S and 20S) and activation of the released 20S catalytic core that still remains in the gel together with the whole 26S assembly. […] Traces of the 20S in both control 26S preparation and preparation pre-incubated with Tat1 8,9 TOD.

Experiment [4] relates to APP, BACE1 and Aβ42 levels. The experiment can be described thus: Immunoblot of APP and BACE1 and Aβ42 Elisa in hAPP(J20) mice. Type of experiment: in vivo, mouse. The note with it: 14 days treatment.

For the molecule `N=C(N)NCCCC(NC(=O)CN)C(=O)NC(CCCCN)C(=O)NC(CCCCN)C(=O)NC(CCCNC(=N)N)C(=O)NC(CCCNC(=N)N)C(=O)NC(CCC(N)=O)C(=O)N1Cc2ccccc2C[C@H]1C(=O)N1C(C(=O)NC(CCCNC(N)N)C(=O)N2CCCC2C(=O)NC(CO)C(=O)O)CC2CCCCC21` (some centres unmarked) [(5), GRKKRRQ-TOD-RPS], the “olfaction aversion training performance” value in experiment [1] was “Improved performance in olfaction aversion training”. In addition, in experiment [2], the “effect on trypsin-like (T-L) activity” value is listed as “weak inhibitory effects; also recorded: did not seem to significantly affect”. The “26S activity in gel overlay” value in experiment [3] is given as “enhanced”. For the same molecule, in experiment [4], the APP protein levels entry was “decline in both APP and BACE1 protein levels”; the “protein levels of BACE1” value is reported as “significantly reduces”; the “protein levels of β-amyloid” value was “significantly reduces”.
On to `NCCCCC(N)C(=O)NC(CCCCN)C(=O)NC(CCCCN)C(=O)Nc1cc(NC(=O)C(CCCCN)NC(=O)C(CCCCN)NC(=O)C(N)CCCCN)cc(C(=O)NC(CCCCN)C(=O)NC(CCCCN)C(=O)NC(CCCCN)C(=O)O)c1` (centres unmarked) [(8)], for which the “olfaction aversion training performance” value in experiment [1] was “Improved performance in olfaction aversion training”. In addition, the “effect on trypsin-like (T-L) activity” value in experiment [2] is given as “weak inhibitory effects; also recorded: did not seem to significantly affect”.

The record behind these values is US20220332758A1, “PEPTIDE-BASED COMPOSITIONS AND METHODS FOR TREATING ALZHEIMER'S DISEASE” (Board of Regents, The Universityof Texas System, priority 2019, published 2022).
